Laboratory results reported in ChEMBL document CHEMBL1201862, “PubChem BioAssay data set” (2004).
Active and inactive are the calls of the source.

Key:
HEK293 = assay: SAR Analysis of small molecule inhibitors of T-cell specific antigen receptor-induced NF-kB activation in a HEK-293T cell line using a luminescence assay - Set 2. [Related pubchem assays (depositor defined):AID435003, AID435012, AID489026]; format: functional, cell-based; conditions: Homo sapiens
Exodeoxyribonuclease V = target: T1, Exodeoxyribonuclease V (Escherichia coli (strain K12), UniProt P04993+P07648+P08394); assay: RecBCD inhibition via phage-restricted bacterial growth – absorbance, V66 E. coli, mutant T4 phage, counter-screen for AddAB inhibitor project, dose response (AID 492957); format: functional, cell-based, Escherichia coli str. K-12 substr. MG1655
T1 sequence (P04993 whole entry): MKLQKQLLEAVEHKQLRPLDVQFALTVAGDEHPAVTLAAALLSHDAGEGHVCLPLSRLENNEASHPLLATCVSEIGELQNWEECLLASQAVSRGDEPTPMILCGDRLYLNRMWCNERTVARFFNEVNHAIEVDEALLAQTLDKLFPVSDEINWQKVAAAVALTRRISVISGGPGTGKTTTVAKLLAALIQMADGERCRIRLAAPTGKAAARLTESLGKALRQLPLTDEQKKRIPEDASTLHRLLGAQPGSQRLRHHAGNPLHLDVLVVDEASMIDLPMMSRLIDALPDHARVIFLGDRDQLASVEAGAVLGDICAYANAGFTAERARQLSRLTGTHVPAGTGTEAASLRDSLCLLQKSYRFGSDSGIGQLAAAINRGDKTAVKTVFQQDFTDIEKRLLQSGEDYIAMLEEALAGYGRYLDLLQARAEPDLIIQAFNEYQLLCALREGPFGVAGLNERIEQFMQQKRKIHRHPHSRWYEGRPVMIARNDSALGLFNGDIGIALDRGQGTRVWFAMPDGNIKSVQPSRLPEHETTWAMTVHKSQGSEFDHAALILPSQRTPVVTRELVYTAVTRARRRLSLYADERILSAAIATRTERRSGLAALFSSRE
T1 sequence (P07648 whole entry): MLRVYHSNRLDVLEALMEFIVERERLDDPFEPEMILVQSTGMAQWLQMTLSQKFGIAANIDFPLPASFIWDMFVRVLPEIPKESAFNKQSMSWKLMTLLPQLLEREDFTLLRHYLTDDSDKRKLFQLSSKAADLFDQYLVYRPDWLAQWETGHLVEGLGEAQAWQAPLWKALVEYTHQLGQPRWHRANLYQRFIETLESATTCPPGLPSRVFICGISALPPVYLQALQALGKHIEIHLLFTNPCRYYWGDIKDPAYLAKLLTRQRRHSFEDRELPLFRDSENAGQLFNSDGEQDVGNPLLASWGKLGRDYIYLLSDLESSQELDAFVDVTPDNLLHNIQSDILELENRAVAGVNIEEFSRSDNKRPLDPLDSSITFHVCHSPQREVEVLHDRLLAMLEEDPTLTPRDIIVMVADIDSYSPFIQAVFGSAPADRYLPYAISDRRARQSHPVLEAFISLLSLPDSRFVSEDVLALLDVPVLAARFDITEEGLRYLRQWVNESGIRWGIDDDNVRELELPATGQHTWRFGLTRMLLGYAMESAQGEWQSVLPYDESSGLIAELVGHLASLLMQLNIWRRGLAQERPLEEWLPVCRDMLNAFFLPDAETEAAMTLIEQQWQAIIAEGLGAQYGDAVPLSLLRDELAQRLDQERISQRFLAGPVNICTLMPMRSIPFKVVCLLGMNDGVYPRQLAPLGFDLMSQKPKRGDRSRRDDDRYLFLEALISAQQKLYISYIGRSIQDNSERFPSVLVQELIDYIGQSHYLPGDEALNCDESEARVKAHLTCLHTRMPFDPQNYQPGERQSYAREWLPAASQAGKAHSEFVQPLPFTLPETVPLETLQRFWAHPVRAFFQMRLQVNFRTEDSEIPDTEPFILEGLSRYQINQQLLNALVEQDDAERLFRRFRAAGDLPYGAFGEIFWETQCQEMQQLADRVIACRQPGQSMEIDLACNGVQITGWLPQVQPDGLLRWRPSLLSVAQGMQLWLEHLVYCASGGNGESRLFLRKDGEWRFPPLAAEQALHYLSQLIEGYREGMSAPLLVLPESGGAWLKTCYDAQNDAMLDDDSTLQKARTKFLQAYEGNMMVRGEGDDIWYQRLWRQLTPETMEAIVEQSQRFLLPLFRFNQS
T1 sequence (P08394 whole entry): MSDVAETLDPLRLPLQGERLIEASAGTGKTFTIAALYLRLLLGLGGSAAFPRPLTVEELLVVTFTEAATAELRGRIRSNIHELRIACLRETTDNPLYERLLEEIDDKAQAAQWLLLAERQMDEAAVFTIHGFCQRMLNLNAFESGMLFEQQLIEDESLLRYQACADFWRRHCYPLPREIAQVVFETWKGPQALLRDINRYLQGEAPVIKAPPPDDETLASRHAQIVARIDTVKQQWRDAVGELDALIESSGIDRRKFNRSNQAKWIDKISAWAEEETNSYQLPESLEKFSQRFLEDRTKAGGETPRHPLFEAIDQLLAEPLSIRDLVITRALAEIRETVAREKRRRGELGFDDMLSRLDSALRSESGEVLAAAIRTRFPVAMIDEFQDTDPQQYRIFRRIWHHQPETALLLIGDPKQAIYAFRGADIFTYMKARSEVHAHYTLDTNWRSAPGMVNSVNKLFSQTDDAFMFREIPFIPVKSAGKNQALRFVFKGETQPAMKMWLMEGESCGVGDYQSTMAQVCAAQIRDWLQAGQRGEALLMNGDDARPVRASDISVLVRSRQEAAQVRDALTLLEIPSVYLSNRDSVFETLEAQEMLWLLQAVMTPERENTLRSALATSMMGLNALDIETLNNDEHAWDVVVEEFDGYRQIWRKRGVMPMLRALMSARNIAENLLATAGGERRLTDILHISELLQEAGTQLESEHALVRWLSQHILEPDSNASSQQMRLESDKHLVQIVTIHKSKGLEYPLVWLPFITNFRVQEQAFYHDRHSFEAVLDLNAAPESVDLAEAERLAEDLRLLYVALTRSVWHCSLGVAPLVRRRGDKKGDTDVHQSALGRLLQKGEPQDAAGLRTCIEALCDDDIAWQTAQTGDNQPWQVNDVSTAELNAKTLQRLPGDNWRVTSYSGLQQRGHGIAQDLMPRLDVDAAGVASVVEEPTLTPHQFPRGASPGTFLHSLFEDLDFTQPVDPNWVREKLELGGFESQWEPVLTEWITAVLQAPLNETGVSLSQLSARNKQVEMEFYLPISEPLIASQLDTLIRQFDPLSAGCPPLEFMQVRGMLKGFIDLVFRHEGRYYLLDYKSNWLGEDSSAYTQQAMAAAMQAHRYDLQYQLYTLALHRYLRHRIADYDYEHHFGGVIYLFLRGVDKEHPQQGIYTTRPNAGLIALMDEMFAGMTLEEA

[1] = Trypanosoma cruzi growth suppression in host cells – NIH3T3 host cells, beta-gal luminescence, confirmation (AID 2044); format: functional, cell-based;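 note: intracellular parasites grown in NIH/3T3 mouse fibroblasts as host cells; luminescent beta-galactosidase reporter signal from transgenic T. cruzi replicating inside host cells; inhibitors lower the luminescence signal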
[2] = fluconazole-exposed Candida albicans growth modulators – fluorescence, retest, confirmation (AID 2467); format: functional, cell-based

CCCCC(=O)NC(c1ccc(N(CC)CC)cc1)c1ccc2cccnc2c1O (centres undefined)
IC50 (HEK293): 13 µM (active)
IC50 (Exodeoxyribonuclease V): > 119 µM (inactive)
EC50 [1]: < 0.1 µM (active)
EC50 [2]: 0.405 µM (active)
